From patent US5336621A, “Divalent hapten derivatives” (Hoechst Celanese Corporation, priority 1988, dated 1994)

Experiment: Solubility comparison for bis-(theophylline-8-butyryl)-diamides
Type: physicochemical
Procedure: The bis-(theophylline-8-butyryl)-diamides of 1,6-hexanediamine and 4,9-dioxa-1,12-dodecanediamine (examples 2 and 3) were each dissolved in dimethylsulfoxide. The 4,9-dioxa-1,12-dodecanediamide dissolved readily to give a solution of 10 mg/0.5 ml at room temperature.

| Structure (SMILES) | behaviour on dilution of DMSO solution into aqueous phosphate buffer (10 mg/0.5 ml DMSO solution diluted into 2 ml of 50 mM aqueous sodium phosphate buffer (pH 7.5)) | solution obtained in dimethylsulfoxide (dissolved readily in dimethylsulfoxide, room temperature) | behaviour on dilution of DMSO solution into aqueous phosphate buffer (10 mg/2 ml DMSO solution diluted into a two-fold volume of pH 7.5 phosphate buffer) | solution obtained in dimethylsulfoxide (required heating to obtain a solution in dimethylsulfoxide) |
| --- | --- | --- | --- | --- |
| Cn1c(=O)c2[nH]c(CCCC(=O)NCCCOCCCCOCCCNC(=O)CCCc3nc4c([nH]3)c(=O)n(C)c(=O)n4C)nc2n(C)c1=O [Example 3, bis-(Theophylline-8-butyryl)-4,9-dioxa-1,12-dodecane-diamide] | clear, stable solution | 10 mg/0.5 ml | – | – |
| Cn1c(=O)c2[nH]c(CCCC(=O)NCCCCCCNC(=O)CCCc3nc4c([nH]3)c(=O)n(C)c(=O)n4C)nc2n(C)c1=O [Example 2, bis-(Theophylline-8-butyryl)-1,6-hexanediamine] | – | – | immediate heavy precipitation of divalent hapten was noted | 10 mg/2 ml |
